Results published in patent publication US20030129629A1, “Methods and compositions for the identification, assessment, prevention, and therapy of human cancers” (Millennium Pharmaceuticals, Inc., priority 2000, published 2003).
Like-named read-outs stand apart in the source and are kept apart here.

Legend:
[1] = test system: 60 cancer cell lines (NCI 60 cancer cell line series); details: cited from earlier work
[2] = test system: 60 cancer cell lines (NCI 60 cancer cell line series); assay: NCI-DTP in vitro cancer screen, sulforhodamine B (SRB) growth inhibition, 48 hour exposure; type: cell-based, human
How it was run: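 NCI-DTP panel of 60 cancer cell lines plated day 0 at line-specific densities, exposed from day 1 to compound at 5 ten-fold-spaced doses in duplicate wells. After 48 h, cell mass stained with sulforhodamine B; −log GI50 derived from dose–response curves, averaged, and classed Low, Medium or High sensitivity.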

In the case of `COc1cccc2c1C(=O)c1c(O)c3c(c(O)c1C2=O)C[C@@](O)(C(=O)CO)C[C@@H]3O[C@H]1C[C@H](N)[C@H](O)[C@H](C)O1` [Adriamycin], the “−Log (GI50)” value ([1]; Melanoma SK-MEL-2 CL10005) is listed as 6.6, the “−Log (GI50)” value ([1]; Melanoma SK-MEL-28 CL10008) is listed as 6.5 and the “−Log (GI50)” value ([1]; NSCLC NCI-H226 CL1013) is listed as 7.2. The “classification of cell line as Low(1), Medium(2), High(3) sensitivity to compound” value (shortened to “classification of cell line”) ([2]; Breast BT-549 CL5013) was 2, the “classification of cell line” value ([2]; Breast HS-578T CL5006) was 2 and the “classification of cell line” value ([2]; Breast MCF7(I) CL5001) was 3. For the same molecule, the “classification of cell line” value ([2]; Breast MCF7/ADRr CL5002) was 1, the “classification of cell line” value ([2]; Breast MDA-MB-231 CL5005) was 2 and the “classification of cell line” value ([2]; Breast MDA-MB-435 CL5011) was 2. The “classification of cell line” value ([2]; Breast MDA-N CL5012) was 2, the “classification of cell line” value ([2]; Breast T-47D CL5014) was 2 and the “classification of cell line” value ([2]; CNS SF-268 CL12014) was 2. The “classification of cell line” value ([2]; CNS SF-295 CL12015) was 2, the “classification of cell line” value ([2]; CNS SF-539 CL12016) was 2 and the “classification of cell line” value ([2]; CNS SNB-19 CL12002) was 2. The “classification of cell line” value ([2]; CNS SNB-75(I) CL12005) was 2, the “classification of cell line” value ([2]; CNS U251(I) CL12009) was 2 and the “classification of cell line” value ([2]; Colon COLO-250 CL4010) was 2. The “classification of cell line” value ([2]; Colon HCC-2998 CL4002) was 2, the “classification of cell line” value ([2]; Colon HCT-15 CL4015) was 1 and the “classification of cell line” value ([2]; Colon HCT-116 CL4003) was 2. For the same molecule, the “classification of cell line” value ([2]; Colon HT29(I) CL4001) was 2, the “classification of cell line” value ([2]; Colon KM12 CL4017) was 2 and the “classification of cell line” value ([2]; Colon SW-620 CL4009) was 2. The “classification of cell line” value ([2]; Leukemia CCRF-CEM(I) CL7003) was 3, the “classification of cell line” value ([2]; Leukemia HL-60(I) CL7008) was 2 and the “classification of cell line” value ([2]; Leukemia K562(I) CL7005) was 2. For the same molecule, the “classification of cell line” value ([2]; Leukemia MOLT-4 CL7006) was 3, the “classification of cell line” value ([2]; Leukemia RPMI-8226(I) CL7010) was 2 and the “classification of cell line” value ([2]; Leukemia SR CL7019) was 3. The “classification of cell line” value ([2]; Melanoma LOX IMVI CL10001) was 2, the “classification of cell line” value ([2]; Melanoma M14 CL10014) was 2 and the “classification of cell line” value ([2]; Melanoma MALME-3M CL10002) was 2. The “classification of cell line” value ([2]; Melanoma SK-MEL-2 CL10005) was 2, the “classification of cell line” value ([2]; Melanoma SK-MEL-28 CL10008) was 2 and the “sensitivity classification Low(1)/Medium(2)/High(3)” value ([2]; NSCLC NCI-H23(I) CL1001) was 2. For the same molecule, the “sensitivity classification Low(1)/Medium(2)/High(3)” value ([2]; NSCLC NCI-H332M CL1017) was 1, the “sensitivity classification Low(1)/Medium(2)/High(3)” value ([2]; NSCLC NCI-H460 CL1021) was 3 and the “sensitivity classification Low(1)/Medium(2)/High(3)” value ([2]; NSCLC NCI-H522 CL1003) was 2. For the same molecule, the “sensitivity classification Low(1)/Medium(2)/High(3)” value ([2]; Ovarian IGROV1 CL6010) was 2, the “sensitivity classification Low(1)/Medium(2)/High(3)” value ([2]; Ovarian OVCAR-3 CL6001) was 2 and the “sensitivity classification Low(1)/Medium(2)/High(3)” value ([2]; Ovarian OVCAR-4 CL6002) was 1. The “sensitivity classification Low(1)/Medium(2)/High(3)” value ([2]; Ovarian OVCAR-5 CL6003) was 1, the “sensitivity classification Low(1)/Medium(2)/High(3)” value ([2]; Ovarian OVCAR-8 CL6005) was 2 and the “sensitivity classification Low(1)/Medium(2)/High(3)” value ([2]; Ovarian SK-OV-3 CL6011) was 2. For the same molecule, the “sensitivity classification Low(1)/Medium(2)/High(3)” value ([2]; Prostate DU-145 CL11003) was 2, the “sensitivity classification Low(1)/Medium(2)/High(3)” value ([2]; Prostate PC-3(I) CL11001) was 2 and the “sensitivity classification Low(1)/Medium(2)/High(3)” value ([2]; Renal 786-0 CL9018) was 2. For the same molecule, the “sensitivity classification Low(1)/Medium(2)/High(3)” value ([2]; Renal A498 CL9013) was 2, the “sensitivity classification Low(1)/Medium(2)/High(3)” value ([2]; Renal ACHN CL9023) was 2 and the “sensitivity classification Low(1)/Medium(2)/High(3)” value ([2]; Renal CAKI-1 CL9015) was 2. The “sensitivity classification Low(1)/Medium(2)/High(3)” value ([2]; Renal RXF-393 CL9016) was 2, the “sensitivity classification Low(1)/Medium(2)/High(3)” value ([2]; Renal SN12C CL9008) was 2 and the “sensitivity classification Low(1)/Medium(2)/High(3)” value ([2]; Renal TK10 CL9024) was 2. The “sensitivity classification Low(1)/Medium(2)/High(3)” value ([2]; Renal UO-31 CL9004) was 1.
